Molecules are shown by their SMILES.

The subject of one assay is 4T1 lung metastasis. The assay can be described thus: Treatment of metastatic 4T1 model. Format: in vivo, mice. The following applies: day 34. On the procedure: 2×10^5 4 T1 cells were injected into the mammary fat pad. Seven days after injection, tumor-bearing mice were divided into 3 experimental groups: untreated, 3×cGAMP-S, and 1×cGAMP-S plus cGAMP-MPs (10m of cGAMP-S, 5 PLGA-1 microdevices containing 10 μg of cGAMP, and 5 PLGA-2 microdevices containing 10 μg of cGAMP). The primary tumor was surgically removed at day 18 to extend survival. Mice were euthanized at day 34. Lung tissues were stained with India ink and fixed in Fekete's solution. Metastatic foci on the lung were counted under a microscope. Unstained lung tissues were fixed in formalin and stained by H&E. Quantitation of metastatic tumor cells of H&E stained sections was performed using an Aperio ImageScope using tuned positive pixel count algorithm. Briefly, input hue value in the positive pixel count algorithm was tuned to positively select normal lung tissues in red to orange range, while the tumors were negatively selected in purple. Percentage area of tumor metastasis per total lung area was calculated by the number of negative counts (purple)/the number of total counts (purple, orange, and red)×100%. Three H&E sections per lung at different depths were analyzed and averaged to obtain the percentage of tumor over the lung for one mouse. Four or five mice were analyzed for each group.

Another assay relates to B16F10 tumor recurrence. The assay can be described thus: Treatment of surgically removed B16F10 tumor and re-challenge. Format: in vivo, mice. The text has this: 2×10^5 B16F10 cells were subcutaneously injected to the right rear flank of C57BL/6 female mice. Six days after tumor inoculation, B16F10 tumor-bearing mice were randomly divided into 4 experimental groups (n=8 for each group): untreated, 1×cGAMP-S plus EPs, 3×cGAMP-S, and 1×cGAMP-S plus cGAMP-MPs, respectively. ˜99% of tumor volume was surgically removed, leaving ˜1% residual tumor to mimic residual microtumors. Upon the removal of tumors, cGAMP-MPs (10m of cGAMP-S, 5 PLGA-1 microdevices containing 10 μg of cGAMP, and 5 PLGA-2 microdevices containing 10 μg of cGAMP) or 1×cGAMP-S plus EPs (10m of cGAMP-S, 5 each of empty PLGA-1 and PLGA-2 microdevices) in 50 μL MC solution were directly applied to the surgical bed through a micropipette. For 3×cGAMP-S treated group, 10 μg of cGAMP-S was applied to the surgical bed after surgery followed by intratumoral injections of 10 μg of cGAMP at days 4 and 8 post-surgery (FIG. 6A). The wound was closed by an autoclip wound clip system. Tumor size was measured with a digital caliper every other day starting at day 7 post tumor inoculation. For the re-challenge experiment, 2×10^5 B16F10 cells were subcutaneously injected to the left rear flank of treated mice with complete responses. Tumor size was measured every other day with a digital caliper.

As to `Nc1nc2c(ncn2[C@@H]2O[C@@H]3COP(=O)(O)O[C@H]4[C@@H](O)[C@H](n5cnc6c(N)ncnc65)O[C@@H]4COP(=O)(O)O[C@H]3[C@H]2O)c(=O)[nH]1` [cGAMP-S, 3′3′-cGAMP], in the assay on 4T1 lung metastasis (cGAMP-MPs single injection day 7, cGAMP-S days 7, 11, 15), the “number of metastatic foci on lung surfaces” value is reported as “significantly decreased”. For the same compound, the “relative area of tumors in the lungs” value in the assay on 4T1 lung metastasis (compared to untreated) was “reduced”. Moreover, the tumor recurrence rate is 25% in the assay on B16F10 tumor recurrence (cGAMP-MPs single application, cGAMP-S three doses, untreated 100%) and 87.5% in the assay on B16F10 tumor recurrence (single dose of cGAMP-S plus EPs). In addition, the survival after re-challenge entry with B16F10 tumor recurrence (tumor-free mice re-challenged with B16F10 cells) is “prolonged survival time”. The “tumor growth after re-challenge versus naïve mice” value with B16F10 tumor recurrence (tumor-free mice re-challenged with B16F10 cells at day 60) is “significantly slower”.

Source of the values: US12390537B2, “Compositions of polymeric microdevices and methods of use thereof in cancer immunotherapy” (Massachusetts Institute of Technology, priority 2020, dated 2025).
